The results in this text go back to patent US8357350B2, “Annulus fibrosus detection in intervertebral discs using molecular imaging agents” (General Electric Company, priority 2009, dated 2013).

Data set [1] can be described thus: Absorbance and fluorescence spectra of FM fluorophores in solvents. It is filed as physicochemical. The note with it: for Em nm (MeOH): emission maximum in MeOH; for Em nm (PBS): emission maximum in PBS; for Ex nm (MeOH): excitation maximum in MeOH; for Ex nm (PBS): excitation maximum in PBS. The procedure: (§1) Absorbance and fluorescence spectra of the FM fluorophores were measured in PBS and absolute methanol (MeOH) using fiber-optic HR2000 (200-1100 nm) and USB2000FL (350-1000 nm) spectrometers (Ocean Optics, Dunedin, Fla.), respectively. Fluorescence excitation was provided by a 2 mW, 532 nm laser diode. The fluorescence and absorbance spectra of FORMULA II and FORMULA IA were collected in dimethyl sulfoxide (DMSO) and fetal bovine serum (FBS), as well as MeOH and PBS. The quantum yield of FORMULA II and FORMULA IA in DMSO, MeOH, FBS and PBS was measured by comparing the integrated fluorescence emission of the fluorophores in each solvent to the emission of Alexa Fluor 555 (Invitrogen) in PBS (quantum yield=10%) as a reference standard under conditions of matched absorbance at the excitation wavelength. The LogD of each FM fluorophore at pH 7.5 was calculated using Marvin 5.0.3 software (ChemAxon, Budapest, Hungary).

Data set [2] relates to dorsal root ganglia. Kind of data set: FM fluorophore uptake, intraoperative fluorescence imaging. It is filed as in vivo, mice and rats. The note with it: 5 mg/kg mice, 0.5 mg/kg rats IP, 16 hours before imaging; signal normalized to muscle, vs vehicle control. The protocol:
(§2) Imaging was carried out at near infrared wavelenghts using a 400- to 700-nm “white” light (0.5 mW/cm^2) and a 725- to 775-nm NIR fluorescence excitation light (5 mW/cm^2). Fluorescence images were collected using exposure times ranging from 500 to 2000 msec. All images collected for comparison between vehicle-injected control animals and FM fluorophore-injected animals had the same exposure time and normalization. Color video images were collected on a separate optical channel using custom designed software. The excitation and emission LEDs and filter used for the FM fluorophores and Pam800 in the intraoperative imaging system are described as follows. For fluorescence excitation of FM 1-43, FM 2-10, FM 1-43FX and Formula IA, sixty 5-mm 470 nm LEDs ([…], Inc., Kyoto, Japan) fitted with 470±20 nm band pass (BP) excitation filters (Chroma Technology, Rockingham, Vt.) in custom holders were used, which produced a fluence rate on the imaging surface of 0.56 mW/cm^2. For fluorescence excitation of Formula II, FM 4-64, FM 4-64FX and FM 5-95, sixty 5-mm 535 nm LEDs fitted with 525±25 nm BP excitation filters were used, which produced a fluence rate on the imaging surface of 0.34 mW/cm^2. A 610±38 nm BP filter was used to detect fluorescence emission of FM 1-43, FM 2-10, Formula II, FM 1-43FX and Formula IA. To detect fluorescence emission of FM 4-64, FM 4-64FX and FM 5-95 a 720 nm long pass (LP) filter was used. For fluorescence excitation of Pam800, 348 5-mm 760 nm LEDs fitted with 764±17 nm BP excitation filters were used, which produced a fluence rate on the imaging surface of 8.73 mW/cm^2 and fluorescence emission was detected using a 824±24 nm BP emission filter. To assess the structure-activity relationship of the FM fluorophores, each molecule was administered at 5 mg/kg to mice and 0.5 mg/kg to rats (n=4 per group) in 10% DMSO and 90% PBS IP 16 hours before imaging with the intraoperative system. The fluorescence signal from the spinal cord, intervertebral discs, dorsal root ganglia, trigeminal ganglia, optic nerve, brain and femoral nerve were normalized to muscle signal in the same image. This normalization ratio was then compared between FM fluorophore-injected animals and vehicle-injected control animals.

The subject of data set [3] is intervertebral discs. The description is as above. The format is in vivo, mice and rats. The protocol:
as §2

Data set [4] relates to trigeminal ganglia. The data set is described as above. It is filed as in vivo, mice and rats. The note with it: 5 mg/kg mice, 0.5 mg/kg rats IP, 16 hours before imaging; signal normalized to muscle, vs vehicle control. The protocol: as §2
Data set [5] concerns dorsal root ganglia. The data set can be described thus: Histology and fluorescence microscopy of dorsal root ganglia. It is filed as in vivo. The note with it: rat, 0.5 mg/kg, 16 h post-IP. The protocol: Tissues from mice, rats and pig were preserved for microscopic assessment and localization of fluorescence signal. Tissues were extracted from the animal and placed in 2% paraformaldehyde in PBS for 2 to 4 hours before mounting in Tissue-Tek OCT compound (Fisher Scientific, Pittsburgh, Pa. ) and flash-freezing in liquid nitrogen. Each sample was cryo-sectioned (12 μm per slice); one slide was stained with hematoxylin and eosin (H&E) and a consecutive section was used for fluorescence microscopy. For fluorescence microscopy, serial sections were imaged on a Nikon TE 300 microscope system equipped with a mercury excitation source (Chiu Technical Corporation, Kings Park, N.Y.), Orca-ER 12-bit camera (Hamamatsu, Bridgewater, N.J.), and IPLab software (BD Biosciences, Rockville, Md.), using the following excitation and emission filters combinations. To obtain fluorescence images of FM 4-64, the mercury light source was passed through a 540±15 nm BP excitation filter, 700 nm dichroic beam splitter and 720 nm LP emission filter. To obtain fluorescence images of FM 1-43FX and Formula IA, the mercury light source was passed through a 460±25 nm BP excitation filter, 505 nm dichroic beam splitter and a 610±38 nm BP emission filter. Exposure times were adjusted between 5 and 2000 ms for fluorescence images.

Data set [6] in a line: Fluorescence quantum yield versus Alexa Fluor 555 reference. The format is physicochemical. The note with it: highest in FBS among DMSO, MeOH, PBS. The protocol:
as §1
For Uptake: Dorsal Root Ganglia in this document: key: +: Positive contrast was concluded if the nerve-to-muscle contrast ratio of FM fluorophore-injected animals was elevated relative to control animals.
For Uptake: Intervertebral Disc in this document: key: +: Positive contrast was concluded if the nerve-to-muscle contrast ratio of FM fluorophore-injected animals was elevated relative to control animals.
For Uptake: Trigeminal Ganglia in this document: key: +: Positive contrast was concluded if the nerve-to-muscle contrast ratio of FM fluorophore-injected animals was elevated relative to control animals.

For the compound `CCCCN(CCCC)c1ccc(/C=C/c2cc[n+](CCC[N+](CC)(CC)CC)cc2)cc1.[Br-].[Br-]` [FM 1-43], in data set [1], the “Em nm (MeOH)” value turned out to be 624 nm, the “Em nm (PBS)” value is 631 nm, the “Ex nm (MeOH)” value came to 509 nm and the “Ex nm (PBS)” value stood at 493 nm. Also, in data set [2], the “Uptake: Dorsal Root Ganglia” value was “+”. Also, in data set [3] (5 mg/kg mice, 0.5 mg/kg rats IP, 16 hours before imaging, signal normalized to muscle, vs vehicle control), the “Uptake: Intervertebral Disc” value was “+”. In data set [3] (IP administration to mice and rats), the “contrast in the intervertebral discs” value is given as “positive contrast”. In addition, the “Uptake: Trigeminal Ganglia” value in data set [4] is given as “+”.
Turning to `CCN(CC)c1ccc(/C=C/c2cc[n+](CCC[N+](CC)(CC)CC)cc2)cc1.[Br-].[Br-]` [FM 2-10], in data set [1], the “Em nm (MeOH)” value is given as 622 nm, the “Em nm (PBS)” value came out at 628 nm, the “Ex nm (MeOH)” value was found to be 507 nm and the “Ex nm (PBS)” value is reported as 490 nm. In data set [4], the “Uptake: Trigeminal Ganglia” value is “+”.
Consider `CCN(CC)c1ccc(/C=C/C=C/C=C/c2cc[n+](CCC[N+](CC)(CC)CC)cc2)cc1.[Br-].[Br-]` [FM 4-64], for which, in data set [1], the “Em nm (MeOH)” value worked out at 811 nm, the “Em nm (PBS)” value was found to be 808 nm, the “Ex nm (MeOH)” value was found to be 546 nm and the “Ex nm (PBS)” value amounted to 507 nm. The “Uptake: Dorsal Root Ganglia” value in data set [2] was “+”. The “Uptake: Trigeminal Ganglia” value in data set [4] is on record as “+”. Moreover, the “microscopic localisation of fluorescence in dorsal root ganglion” value in data set [5] was “significant fluorescence intensity was seen in the dense cellular regions”.
In the case of `CCN(CC)c1ccc(C=CC=CC=Cc2cc[n+](CCC[N+](C)(C)C)cc2)cc1.[Br-].[Br-]` [FM 5-95], in data set [1], the “Em nm (MeOH)” value came to 809 nm, the “Em nm (PBS)” value worked out at 809 nm, the “Ex nm (MeOH)” value was determined as 542 nm and the “Ex nm (PBS)” value worked out at 490 nm. For the same compound, the “Uptake: Dorsal Root Ganglia” value in data set [2] is “+”. In addition, the “Uptake: Trigeminal Ganglia” value in data set [4] is given as “+”.
Consider `CCCCN(CCCC)c1ccc(/C=C/C=C/C=C/c2cc[n+](CCC[N+](CC)(CC)CC)cc2)cc1.[Br-].[Br-]` [Formula II, 4-((1 E,3E,5E)-6-(4-(dibutylamino)phenyl)hexa-1,3,5-trienyl)-1-(3-(triethylammonio)propyl)pyridinium dibromide], for which the “blue shift of emission maximum in FBS” value in data set [1] (FBS compared to DMSO, MeOH or PBS) was “over 100 nm”. For the same compound, in data set [1], the “Em nm (MeOH)” value was determined as 813 nm, the “Em nm (PBS)” value is recorded as 808 nm, the “Ex nm (MeOH)” value came out at 549 nm and the “Ex nm (PBS)” value came out at 519 nm. Besides, in data set [6], the “fluorescence quantum yield, times higher in FBS” value was found to be 10 times. The “Uptake: Trigeminal Ganglia” value in data set [4] is reported as “+”.
